{"source": "patent US20230323279A1", "about": "“MUTANT ALGAE, METHOD OF PREPARATION AND APPLICATION THEREOF” (Reliance Industries Limited, priority 2022, published 2023)", "assay_type_in_all_cases": "cell-based, Picochlorum", "key": {"mutant algae NCAR-1": {"test_system": "mutant algae NCAR-1", "experiment": "Total intracellular ATP, bioluminescence (luciferase) assay", "description": "(§1) Total intracellular ATP levels in wild type algae and the mutant algae were measured using molecular probes bioluminescence assay kit. The assay is based on luciferase’s requirement for ATP in producing light (emission maximum of about 560 nm at pH 7.8) from the reaction\n(§2) Niclosamide was added to mid log cells (OD750 at about 0.3) of both wild type algae and mutant algae and samples (OD = 10^8 cells) were collected after about 12 hours for ATP measurement. About 1 ppm of Oligomycin A (inhibitor of ATP synthase) was used as positive control to inhibit ATP synthesis. intracellular ATP concentration in mutant algae and wild type of the algae in presence of Niclosamide was described in Table 3."}, "mutant algae NCAR-2": {"test_system": "mutant algae NCAR-2", "experiment": "Total intracellular ATP, bioluminescence (luciferase) assay", "description": "as §1, §2"}, "wild type algae (WT)": {"test_system": "wild type algae (WT)", "experiment": "Total intracellular ATP, bioluminescence (luciferase) assay", "conditions": "about 12 hours; for ATP conc. / bioluminescence reading, Average / bioluminescence reading, replicate 1 / bioluminescence reading, replicate 2: 1 ppm drug; for ATP depletion / lower ATP levels: about 1 ppm drug", "description": "as §1, §2"}, "[1]": {"test_system": "wild type of the algae (WT)", "experiment": "Growth of algae culture (OD at 750 nm)", "text": "FIG. 1 A) illustrates a plot describing no growth of wild type of the algae (WT) in presence of Niclosamide (OD at 750 nm); and B) depicts an image of cultures showing no growth of wild type algae in presence of Niclosamide.\n(§3) FIG. 4 A) illustrates a plot describing comparative growth of wild type of the algae and mutant algae (NCAR-1 and NCAR-2) at different concentrations of Niclosamide; and B) depicts an image of cultures showing no growth of wild type algae (WT) and growth of mutant algae (NCAR-1 and NCAR-2) at 10 ppm of Niclosamide, respectively."}, "[2]": {"test_system": "mutant algae (NCAR-1 and NCAR-2)", "experiment": "Growth of algae culture (OD at 750 nm)", "conditions": "for growth of mutant algae as compared to wild type of the algae: about 2 ppm and about 5 ppm, FIGS. 7-9", "text": "as §3"}, "[3]": {"test_system": "mutant algae (NCAR-1 and NCAR-2)", "experiment": "Volumetric productivity (AFDW mg/L/day)", "conditions": "about 2 ppm and about 5 ppm; for volumetric productivity of mutant algae as compared to wild type of the algae: FIGS. 10-12", "text": "The term ‘productivity’ as used herein refers to amount of product the algae can produce under defined conditions. Productivity can be measured in grams of dry weight of algae. Alternatively, productivity can be measured in terms of the rate of production of a desirable product or product(s) such as lipid, protein, carbohydrate and/or any other biomolecule produced by the algae. The term ‘volumetric productivity’ refers to increase in biomass weight of algae/L/day.\nThus, clearly establishing that the mutant algae is resistant to salicylanilide based drug, such as Niclosamide as compared to wild type of the algae."}, "[4]": {"test_system": "mutant algae (NCAR-1 and NCAR-2)", "experiment": "Photosynthetic efficiency/health", "conditions": "about 1 ppm, about 2 ppm and about 5 ppm, FIG. 6", "text": "FIG. 6 illustrate plots describing photosynthetic efficiency/health of- A) wild type of the algae (WT); B) mutant algae (NCAR-1); and C) mutant algae (NCAR-2) at different concentrations of Niclosamide (last day is 7th Day).\nThe improved photosynthetic efficiency of the mutant algae explicitly implies resistance of the mutant algae to salicylanilide based drug, such as Niclosamide and that the wild type of the algae is not resistant to the salicylanilide based drug."}, "WT cells": {"test_system": "WT cells", "experiment": "Killing of WT cells on EMS exposure (mutagenesis)", "conditions": "0.6 M, about 1 hours, about 1 × 10^8 /ml cells", "description": "About 1 × 10^8 /ml WT cells were treated with 0.6 M EMS for about 1 hours. […] The alive cells were allowed to recover in dark overnight and then in low light for about a week. Upon recovering the mutant algae population was exposed to about 0.5 ppm of Niclosamide and enriched in presence of Niclosamide for several generations. As the growth rate in the presence of Niclosamide increased, the selection pressure was increased to about 1 ppm and then to about 2 ppm of Niclosamide, respectively. The mutant pool was grown in presence of about 2 ppm Niclosamide (for about 300 generations, about 1 year) till the growth rates became constant. At this stage, FACS sorting of the Niclosamide resistant mutant pool was performed to get individual Niclosamide resistant mutant algae. About 100 individual mutants were isolated and were further checked for growth in the presence of about 2 ppm Niclosamide. The list was narrowed down to about 10 stable mutants after about 2 rounds of growth screening. Finally, after about 10 rounds of repeated growth screening in the presence of about 2 ppm Niclosamide, stable mutant algae (NCAR-1 & NCAR-2) were selected, based on the stable drug resistant phenotype and consistent growth & productivity."}, "[5]": {"conditions": "NCAR-1, 1 ppm drug, about 12 hours"}, "[6]": {"conditions": "NCAR-2, 1 ppm drug, about 12 hours"}}, "data": [{"smiles": "O=C(Nc1ccc([N+](=O)[O-])cc1Cl)c1cc(Cl)ccc1O", "note": "[Niclosamide, niclosamide]", "values": [{"measurement": "ATP conc.", "setting": "mutant algae NCAR-1; [5]", "value": 125.68, "unit": "nM"}, {"measurement": "bioluminescence reading, Average", "setting": "mutant algae NCAR-1; [5]", "value": 761.5}, {"measurement": "bioluminescence reading, replicate 1", "setting": "mutant algae NCAR-1; [5]", "value": 835}, {"measurement": "bioluminescence reading, replicate 2", "setting": "mutant algae NCAR-1; [5]", "value": 688}, {"measurement": "ATP depletion", "setting": "mutant algae NCAR-1; NCAR-1, after about 12 hours of drug addition", "value": "about 50%"}, {"measurement": "ATP conc.", "setting": "mutant algae NCAR-2; [6]", "value": 138.55, "unit": "nM"}, {"measurement": "bioluminescence reading, Average", "setting": "mutant algae NCAR-2; [6]", "value": 839.5}, {"measurement": "bioluminescence reading, replicate 1", "setting": "mutant algae NCAR-2; [6]", "value": 890}, {"measurement": "bioluminescence reading, replicate 2", "setting": "mutant algae NCAR-2; [6]", "value": 789}, {"measurement": "ATP depletion", "setting": "mutant algae NCAR-2; NCAR-2, after about 12 hours of drug addition", "value": "about 50%"}, {"measurement": "ATP conc.", "setting": "wild type algae (WT)", "value": "~ 28.80 nM"}, {"measurement": "bioluminescence reading, Average", "setting": "wild type algae (WT)", "value": 174.5}, {"measurement": "bioluminescence reading, replicate 1", "setting": "wild type algae (WT)", "value": 204}, {"measurement": "bioluminescence reading, replicate 2", "setting": "wild type algae (WT)", "value": 145}, {"measurement": "ATP depletion / lower ATP levels", "setting": "wild type algae (WT)", "value": "about 90%"}, {"measurement": "growth of wild type of the algae", "setting": "[1]; 10 ppm, FIG. 4B", "value": "no growth"}, {"measurement": "growth of wild type of the algae (OD at 750 nm)", "setting": "[1]; in presence of drug, FIG. 1", "value": "no growth"}, {"measurement": "growth of mutant algae", "setting": "[2]; 10 ppm, FIG. 4B", "value": "evident growth"}, {"measurement": "growth of mutant algae as compared to wild type of the algae", "setting": "[2]", "value": "improved growth"}, {"measurement": "volumetric productivity of mutant algae", "setting": "[3]; about 1 ppm, FIG. 5", "value": "equal to or greater than the volumetric productivity of the wild type of the algae in absence of Niclosamide"}, {"measurement": "volumetric productivity of mutant algae as compared to wild type of the algae", "setting": "[3]", "value": "improved volumetric productivity"}, {"measurement": "photosynthetic efficiency/health of mutant algae as compared to wild type of the algae", "setting": "[4]", "value": "improved photosynthetic efficiency/health"}]}, {"smiles": "O=C(Nc1ccc(Oc2ccc(Cl)cc2)c(Cl)c1)c1cc(I)cc(I)c1O", "note": "[Rafoxanide, rafoxanide]", "values": [{"measurement": "growth of mutant algae as compared to wild type of the algae", "setting": "[2]", "value": "improved growth"}, {"measurement": "volumetric productivity of mutant algae as compared to wild type of the algae", "setting": "[3]", "value": "improved volumetric productivity"}]}, {"smiles": "Cc1cc(C(C#N)c2ccc(Cl)cc2)c(Cl)cc1NC(=O)c1cc(I)cc(I)c1O", "note": "(stereo not shown) [Closantel, closantel]", "values": [{"measurement": "growth of mutant algae as compared to wild type of the algae", "setting": "[2]", "value": "improved growth"}, {"measurement": "volumetric productivity of mutant algae as compared to wild type of the algae", "setting": "[3]", "value": "improved volumetric productivity"}]}, {"smiles": "O=C(Nc1cc(Cl)cc(Cl)c1O)c1c(O)c(Cl)cc(Cl)c1Cl", "note": "[Oxyclozanide, oxyclozanide]", "values": [{"measurement": "growth of mutant algae as compared to wild type of the algae", "setting": "[2]", "value": "improved growth"}, {"measurement": "volumetric productivity of mutant algae as compared to wild type of the algae", "setting": "[3]", "value": "improved volumetric productivity"}]}, {"smiles": "CCOS(C)(=O)=O", "note": "[EMS, ethyl methanesulfonate]", "values": [{"measurement": "killing of the WT cells", "setting": "WT cells", "value": "about 50%"}]}, {"smiles": "CC[C@H]1/C=C/C=C/C[C@@H](C)[C@H](O)[C@@](C)(O)C(=O)[C@@H](C)[C@H](O)[C@@H](C)C(=O)[C@@H](C)[C@H](O)[C@@H](C)/C=C/C(=O)O[C@@H]2[C@H](C)[C@H](CC1)O[C@]1(CC[C@H](C)[C@H](C[C@@H](C)O)O1)[C@H]2C", "note": "[Oligomycin, Oligomycin A]", "values": [{"measurement": "ATP conc.", "setting": "wild type algae (WT)", "value": 178.49, "unit": "nM"}, {"measurement": "bioluminescence reading, Average", "setting": "wild type algae (WT)", "value": 1081.5}, {"measurement": "bioluminescence reading, replicate 1", "setting": "wild type algae (WT)", "value": 1181}, {"measurement": "bioluminescence reading, replicate 2", "setting": "wild type algae (WT)", "value": 982}, {"measurement": "ATP depletion / lower ATP levels", "setting": "wild type algae (WT)", "value": "about 40%"}]}]}
